Experimental data published in patent US10286033B2, “Methods and compositions comprising desmopressin in combination with an alpha-adrenergic receptor antagonist” (Serenity Pharmaceuticals, LLC, priority 2014, dated 2019).
Marks after values point to notes of the source that are not given here.

Columns and labels:
[1] = Clinical study of desmopressin nasal spray on the occurrence of nocturnal voiding (Responder / Non-Responder); format: in vivo, human
Experimental: A clinical study was performed to evaluate the impact of administering desmopressin in combination with an alpha-adrenergic receptor antagonist alone or together with a 5-alpha reductase inhibitor to reduce the occurrence of nocturnal voiding by a patient. Experimental procedures and results are described below. […] Patients received as a nasal spray either (i) a 1.5 μg dosage of desmopressin or (ii) placebo. The desmopressin nasal spray (or placebo) was administered daily just prior to bedtime for a duration of twelve weeks. In addition, patients previously diagnosed as suffering from benign prostatic hyperplasia (BPH) and receiving an alpha-adrenergic receptor antagonist alone or together a 5-alpha reductase inhibitor for treatment of BPH continued to receive the alpha-adrenergic receptor antagonist alone or together the 5-alpha reductase inhibitor at the same dosage and frequency used prior to enrollment in this study. All patients in this study who received an alpha-adrenergic receptor antagonist alone or together a 5-alpha reductase inhibitor for treatment of their BPH had been receiving the alpha-adrenergic receptor antagonist alone or together the 5-alpha reductase inhibitor for at least 2 months before enrollment in this study and experienced on average at least two nocturnal voids per night before enrollment in this study. The desmopressin nasal spray was prepared by combining aliquots of an Emulsion Stock Solution and a Buffer Solution as described below. To produce an emulsion stock solution, the following ingredients in parts by weight are added to a vessel equipped with a stirring bar, and mixed for 15 minutes at 60-65° C.: (i) 180 parts sorbitan monolaurate (Span-20) aqueous solution (12 mg/mL); (ii) 30 parts Polysorbate 20 (Tween-20) aqueous solution (2 mg/mL); (iii) 400 parts cottonseed oil aqueous emulsion (26.6 mg/mL); (iv) 600 parts cyclopentadecanolide (CPE-215) aqueous emulsion (40 mg/mL); and (v) water to produce 1,500 grams total batch size. After mixing, the preparation is homogenized using a high speed mixture at 6500 RPM+ for 20-25 minutes to produce a fine emulsion. This solution is autoclaved to assure sterility. To produce a citric acid buffer stock solution, the following ingredients in parts by weight are added to a vessel equipped with a stirring bar, and mixed for 5 minutes at 60-65° C.: (i) 6200 parts water; (ii) 16 parts anhydrous citric acid aqueous solution (1.85 mg/mL); (iii) 76 parts sodium citrate, dihydrate aqueous solution (8.9 mg/mL); (iv) 104 parts Polysorbate 20 (Tween-20) aqueous solution (12 mg/mL); and (v) water to produce 8,500 grams total batch size. To produce a desmopressin stock solution, 0.111 part desmopressin acetate trihydrate is added to sufficient buffer stock solution to produce 100.0 mL of solution, and stirred until all the desmopressin is dissolved to produce a stock solution having a concentration of 100 μg desmopressin/mL. From this stock solution a 30 μg/mL solution was prepared by dilution. To produce the desmopressin nasal spray, aliquots of the 30 μg/mL solution were filtered to eliminate any bacterial contamination and diluted with an equal volume of emulsion stock solution to produce aseptic, preservative free dose forms comprising 15 μg/mL desmopressin, pH 5.5, containing 2% cyclopentadecanolide. These were bottled in sterile pump spray bottles fitted with a Pfeiffer APF pump sprayers that deliver 100 μL per metered spray (i.e., 1.5 μg desmopressin (i.e., 1500 ng desmopressin) per spray). The liquid contains no detectable microorganisms. Patients recorded the occurrence of nocturnal voids during the study period. Patients were designated to be a “Responder” if after receiving treatment there was a reduction in the average number of nocturnal voids during the treatment period.

[2] = human, in vivo; cited from earlier work
[3] = BPH patients also receiving alpha-adrenergic receptor antagonist and 5-alpha reductase inhibitor, 1.5 μg nasal spray, 12 weeks, n = 21
[4] = BPH patients on alpha-adrenergic receptor antagonist alone or together with 5-alpha reductase inhibitor, n = 21
[5] = BPH patients, no alpha-adrenergic receptor antagonist or 5-alpha reductase inhibitor, n = 42
[6] = male patients without BPH, desmopressin only, n = 34

NC(=O)CC[C@@H]1NC(=O)[C@H](Cc2ccccc2)NC(=O)[C@H](Cc2ccc(O)cc2)NC(=O)CCSSC[C@@H](C(=O)N2CCC[C@H]2C(=O)N[C@H](CCCN=C(N)N)C(=O)NCC(N)=O)NC(=O)[C@H](CC(N)=O)NC1=O [Desmopressin, 1-desamino-8-D-arginine vasopressin]
Non-Responder Patients: Number of Patients that Received Desmopressin ([1]; BPH patients also receiving alpha-adrenergic receptor antagonist (one patient also on an anticholinergic agent), 1.5 μg nasal spray, 12 weeks, n = 21): 7**
Non-Responder Patients: Number of Patients that Received Desmopressin [1, 3]: 2
Responder Patients: Number of Patients that Received Desmopressin [1, 3]: 5
Responder Patients: Number of Patients that Received Desmopressin ([1]; BPH patients also receiving alpha-adrenergic receptor antagonist, 1.5 μg nasal spray daily before bedtime, 12 weeks, n = 21 desmopressin group): 7
Difference in Responder Response Rate Between Desmopressin-treated Patients & Those Receiving Placebo ([1]; BPH patients on alpha-adrenergic receptor antagonist alone or together with 5-alpha reductase inhibitor): 31%
Difference in Responder Response Rate Between Desmopressin-treated Patients & Those Receiving Placebo ([1]; BPH patients on alpha-adrenergic receptor antagonist alone or together with 5-alpha reductase inhibitor, listed as desmopressin): 31%
Non-Responder Patients: Total Number of Patients that Received Desmopressin [1, 4]: 9
Percent Total Non-Responder Patients receiving desmopressin [1, 4]: 43%
Percent Total Responder Patients (absolute response rate) receiving desmopressin [1, 4]: 57%
Responder Patients: Total Number of Patients that Received Desmopressin [1, 4]: 12
Percent Total Responder Patients (absolute response rate) receiving desmopressin ([1]; BPH patients on alpha-adrenergic receptor antagonist alone or together with 5-alpha reductase inhibitor, n = 21, listed as desmopressin): 57%
Difference in Responder Response Rate Between Desmopressin-treated Patients & Those Receiving Placebo ([1]; BPH patients, no alpha-adrenergic receptor antagonist or 5-alpha reductase inhibitor): 14%
Difference in Responder Response Rate Between Desmopressin-treated Patients & Those Receiving Placebo ([1]; BPH patients, no alpha-adrenergic receptor antagonist or 5-alpha reductase inhibitor, listed as desmopressin): 14%
Non-Responder Patients: Number of Patients that Received Desmopressin [1, 5]: 24
Percent Total Non-Responder Patients receiving desmopressin [1, 5]: 57%
Percent Total Responder Patients (absolute response rate) receiving desmopressin [1, 5]: 43%
Responder Patients: Number of Patients that Received Desmopressin [1, 5]: 18
Percent Total Responder Patients (absolute response rate) receiving desmopressin ([1]; BPH patients, no alpha-adrenergic receptor antagonist or 5-alpha reductase inhibitor, n = 42, listed as desmopressin): 43%
Reduction in occurrence of nocturnal voiding, combination compared with single treatments (in words) ([1]; desmopressin with alpha-adrenergic receptor antagonist alone or together with 5-alpha reductase inhibitor, versus desmopressin alone or the antagonist(s) without desmopressin): greater percentage of patients experiencing a reduction in the occurrence of nocturnal voiding
Difference in Responder Response Rate Between Desmopressin-treated Patients & Those Receiving Placebo ([1]; male patients without BPH, desmopressin only): 18%
Difference in Responder Response Rate Between Desmopressin-treated Patients & Those Receiving Placebo ([1]; male patients without BPH, desmopressin only, listed as desmopressin): 18%
Non-Responder Patients: Number of Patients that Received Desmopressin [1, 6]: 16
Percent Total Non-Responder Patients receiving desmopressin [1, 6]: 47%
Percent Total Responder Patients (absolute response rate) receiving desmopressin [1, 6]: 53%
Responder Patients: Number of Patients that Received Desmopressin [1, 6]: 18
Percent Total Responder Patients (absolute response rate) receiving desmopressin ([1]; male patients without BPH, desmopressin only, n = 34, listed as desmopressin): 53%
half-life (known clearance rate) [2]: 1.5 to 2.0 h
